Data reported in US9918915B2, “Personal care compositions providing enhanced cooling sensation” (THE PROCTER & GAMBLE COMPANY, priority 2007, dated 2018).

Assays:
panelists = experiment: Sensory evaluation of cooling sensation after brushing with coolant dentifrice followed by aqueous rinse with or without calcium; assay type: in vivo, human; design: key to Cooling Sensation Score: 0 = no cooling, 60 = intense cooling; 7.5 = definite cooling; settings: for Cooling Sensation Score: 0-60 scale
Description: Sensory evaluation studies of coolant activity were conducted using a methodology patterned after the techniques described in M. C. Meilgaard, et al., Sensory Evaluation Techniques, 4th Ed. (2007). In one study, a panel of 11 trained sensory experts evaluated cooling sensation experienced after brushing with a dentifrice containing coolant(s) followed by rinsing with an aqueous rinse containing a calcium ion source. Panelists brushed teeth with 1.5 grams of a test dentifrice (containing coolant) or control (no coolant) and then expectorated. After brush expectoration, panelists evaluated cooling intensity, assigning a number between 0 (no cooling) to 60 (intense cooling). Panelists then rinsed mouth with 15 ml. of an aqueous rinse (with or without calcium) and expectorated. After rinse expectoration, panelists evaluated cooling intensity according to the same 0 to 60 scale. Evaluations were conducted at 5, 15, 30, 45, 60 minute, etc. time points. At each evaluation, panelists were instructed to breathe in through pursed lips and evaluate overall cooling sensation. In this test, a numerical score of 7.5 indicates meaningful or definite cooling.

human TRPM8 = human TRPM8 (Homo sapiens, UniProt Q7Z2W7); experiment: FLIPR intracellular calcium flux (Fluo-4) in HEK cells stably transfected with human TRPM8; settings: for % Change from G-180 value: pre-treatment with 100 uM test compound + 6.25 uM G-180 vs 6.25 uM G-180 alone, calcium fluorescence; for Average Fluorescence (n = 3): HEK cells with human TRPM8, Fluo-4
Sequence of human TRPM8 (Q7Z2W7 whole entry): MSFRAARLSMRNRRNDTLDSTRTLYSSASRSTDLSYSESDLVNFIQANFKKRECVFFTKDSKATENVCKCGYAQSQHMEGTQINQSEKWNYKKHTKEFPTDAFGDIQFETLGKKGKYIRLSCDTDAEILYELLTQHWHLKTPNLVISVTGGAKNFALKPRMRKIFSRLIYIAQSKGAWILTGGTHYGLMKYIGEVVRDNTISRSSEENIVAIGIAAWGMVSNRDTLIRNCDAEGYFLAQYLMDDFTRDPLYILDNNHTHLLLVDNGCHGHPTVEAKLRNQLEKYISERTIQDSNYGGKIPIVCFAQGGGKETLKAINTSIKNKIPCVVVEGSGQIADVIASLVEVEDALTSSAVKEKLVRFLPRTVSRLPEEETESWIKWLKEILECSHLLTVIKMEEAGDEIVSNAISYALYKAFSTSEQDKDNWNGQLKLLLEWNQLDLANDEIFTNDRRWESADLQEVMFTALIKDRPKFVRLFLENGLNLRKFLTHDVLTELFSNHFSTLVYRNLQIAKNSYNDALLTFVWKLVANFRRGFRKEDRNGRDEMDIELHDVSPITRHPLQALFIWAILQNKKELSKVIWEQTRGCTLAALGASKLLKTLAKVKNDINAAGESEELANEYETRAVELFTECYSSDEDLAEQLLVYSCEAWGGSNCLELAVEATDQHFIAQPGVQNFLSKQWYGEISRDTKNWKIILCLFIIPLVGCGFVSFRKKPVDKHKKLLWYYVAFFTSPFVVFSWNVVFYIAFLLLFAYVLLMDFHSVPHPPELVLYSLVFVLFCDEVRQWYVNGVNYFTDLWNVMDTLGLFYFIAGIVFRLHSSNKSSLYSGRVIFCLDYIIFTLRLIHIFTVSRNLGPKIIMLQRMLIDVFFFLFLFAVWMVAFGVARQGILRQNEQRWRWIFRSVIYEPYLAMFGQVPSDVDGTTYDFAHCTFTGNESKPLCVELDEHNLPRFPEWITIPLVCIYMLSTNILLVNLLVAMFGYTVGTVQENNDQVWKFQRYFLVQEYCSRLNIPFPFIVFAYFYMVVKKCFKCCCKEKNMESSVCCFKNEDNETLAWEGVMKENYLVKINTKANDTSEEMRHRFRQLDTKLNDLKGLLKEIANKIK

[1] = 1000 ppm coolant in paste, rinse Ca+2 0 ppm, 0 min.
[2] = 1000 ppm coolant in paste, rinse Ca+2 0 ppm, 5 min.
[3] = 1000 ppm coolant in paste, rinse Ca+2 0 ppm, 15 min.
[4] = 1000 ppm coolant in paste, rinse Ca+2 0 ppm, 30 min.
[5] = 1000 ppm coolant in paste, rinse Ca+2 0 ppm, 45 min.
[6] = 1000 ppm coolant in paste, rinse Ca+2 0 ppm, 60 min.
[7] = 1500 ppm coolant in paste, rinse Ca+2 0 ppm, 0 min.
[8] = 1500 ppm coolant in paste, rinse Ca+2 0 ppm, 5 min.
[9] = 1500 ppm coolant in paste, rinse Ca+2 0 ppm, 15 min.
[10] = 1500 ppm coolant in paste, rinse Ca+2 0 ppm, 30 min.
[11] = 1500 ppm coolant in paste, rinse Ca+2 0 ppm, 45 min.
[12] = 1500 ppm coolant in paste, rinse Ca+2 0 ppm, 60 min.
[13] = 800 ppm coolant in paste, rinse Ca+2 0 ppm, 0 min.
[14] = 800 ppm coolant in paste, rinse Ca+2 0 ppm, 5 min.
[15] = 800 ppm coolant in paste, rinse Ca+2 0 ppm, 15 min.
[16] = 800 ppm coolant in paste, rinse Ca+2 0 ppm, 30 min.
[17] = 800 ppm coolant in paste, rinse Ca+2 0 ppm, 45 min.
[18] = 800 ppm coolant in paste, rinse Ca+2 0 ppm, 60 min.
[19] = 800 ppm coolant in paste, rinse Ca+2 723 ppm, 0 min.
[20] = 800 ppm coolant in paste, rinse Ca+2 723 ppm, 5 min.
[21] = 800 ppm coolant in paste, rinse Ca+2 723 ppm, 15 min.
[22] = 800 ppm coolant in paste, rinse Ca+2 723 ppm, 30 min.
[23] = 800 ppm coolant in paste, rinse Ca+2 723 ppm, 45 min.
[24] = 800 ppm coolant in paste, rinse Ca+2 723 ppm, 60 min.
[25] = pre-treatment with 100 uM test compound for 30 minutes, then 6.25 uM G-180

CCNC(=O)C1CC(C)CCC1C(C)C (centres unmarked) [WS-3, N-ethyl-ρ-menthan-3-carboxamide]
Cooling Sensation Score (panelists; [1]): 26.2 | Cooling Sensation Score (panelists; [2]): 25.4 | Cooling Sensation Score (panelists; [3]): 11.3 | Cooling Sensation Score (panelists; [4]): 0 | Cooling Sensation Score (panelists; [5]): 0 | Cooling Sensation Score (panelists; [6]): 0 | Cooling Sensation Score (panelists; 1000 ppm coolant in paste, rinse Ca+2 271 ppm, 0 min.): 23.8 | Cooling Sensation Score (panelists; 1000 ppm coolant in paste, rinse Ca+2 271 ppm, 5 min.): 21.4 | Cooling Sensation Score (panelists; 1000 ppm coolant in paste, rinse Ca+2 271 ppm, 15 min.): 10.8 | Cooling Sensation Score (panelists; 1000 ppm coolant in paste, rinse Ca+2 271 ppm, 30 min.): 2.4 | Cooling Sensation Score (panelists; 1000 ppm coolant in paste, rinse Ca+2 271 ppm, 45 min.): 0 | Cooling Sensation Score (panelists; 1000 ppm coolant in paste, rinse Ca+2 271 ppm, 60 min.): 0 | Cooling Sensation Score (panelists; 1000 ppm coolant in paste, rinse Ca+2 542 ppm, 0 min.): 23.6 | Cooling Sensation Score (panelists; 1000 ppm coolant in paste, rinse Ca+2 542 ppm, 5 min.): 14.0 | Cooling Sensation Score (panelists; 1000 ppm coolant in paste, rinse Ca+2 542 ppm, 15 min.): 0 | Cooling Sensation Score (panelists; 1000 ppm coolant in paste, rinse Ca+2 542 ppm, 30 min.): 0 | Cooling Sensation Score (panelists; 1000 ppm coolant in paste, rinse Ca+2 542 ppm, 45 min.): 0 | Cooling Sensation Score (panelists; 1000 ppm coolant in paste, rinse Ca+2 542 ppm, 60 min.): 0 | Cooling Sensation Score (panelists; [7]): 18.1 | Cooling Sensation Score (panelists; [8]): 29.4 | Cooling Sensation Score (panelists; [9]): 12.7 | Cooling Sensation Score (panelists; [10]): 0 | Cooling Sensation Score (panelists; [11]): 0 | Cooling Sensation Score (panelists; [12]): 0 | Cooling Sensation Score (panelists; 1500 ppm coolant in paste, rinse Ca+2 271 ppm, 0 min.): 20.0 | Cooling Sensation Score (panelists; 1500 ppm coolant in paste, rinse Ca+2 271 ppm, 5 min.): 29.8 | Cooling Sensation Score (panelists; 1500 ppm coolant in paste, rinse Ca+2 271 ppm, 15 min.): 9.5 | Cooling Sensation Score (panelists; 1500 ppm coolant in paste, rinse Ca+2 271 ppm, 30 min.): 1.1 | Cooling Sensation Score (panelists; 1500 ppm coolant in paste, rinse Ca+2 271 ppm, 45 min.): 0 | Cooling Sensation Score (panelists; 1500 ppm coolant in paste, rinse Ca+2 271 ppm, 60 min.): 0 | Cooling Sensation Score (panelists; 1500 ppm coolant in paste, rinse Ca+2 542 ppm, 0 min.): 19.3 | Cooling Sensation Score (panelists; 1500 ppm coolant in paste, rinse Ca+2 542 ppm, 5 min.): 23.7 | Cooling Sensation Score (panelists; 1500 ppm coolant in paste, rinse Ca+2 542 ppm, 15 min.): 5.0 | Cooling Sensation Score (panelists; 1500 ppm coolant in paste, rinse Ca+2 542 ppm, 30 min.): 2.7 | Cooling Sensation Score (panelists; 1500 ppm coolant in paste, rinse Ca+2 542 ppm, 45 min.): 0 | Cooling Sensation Score (panelists; 1500 ppm coolant in paste, rinse Ca+2 542 ppm, 60 min.): 0

CCOC(=O)CNC(=O)C1CC(C)CCC1C(C)C (centres unmarked) [WS-5, N-ethoxycarbonylmethyl-ρ-menthan-3-carboxamide]
Cooling Sensation Score (panelists; [13]): 29.2 | Cooling Sensation Score (panelists; [14]): 22.4 | Cooling Sensation Score (panelists; [15]): 8.3 | Cooling Sensation Score (panelists; [16]): 1.0 | Cooling Sensation Score (panelists; [17]): 0 | Cooling Sensation Score (panelists; [18]): 0 | Cooling Sensation Score (panelists; [19]): 30.8 | Cooling Sensation Score (panelists; [20]): 22.2 | Cooling Sensation Score (panelists; [21]): 8.4 | Cooling Sensation Score (panelists; [22]): 2.2 | Cooling Sensation Score (panelists; [23]): 0 | Cooling Sensation Score (panelists; [24]): 0

O=P([O-])(O)OP(=O)([O-])O.[Na+].[Na+] [Sodium acid pyrophosphate]
% Change from G-180 value (human TRPM8): 3.22% | Average Fluorescence (n = 3) (human TRPM8; [25]): 18075.77

CC1CCC(C(C)C)C(OC(=O)C(C)O)C1 (centres unmarked) [Menthyl Lactate, menthyl lactate]
Cooling Sensation Score (panelists; [1]): 23.0 | Cooling Sensation Score (panelists; [2]): 12.7 | Cooling Sensation Score (panelists; [3]): 2.3 | Cooling Sensation Score (panelists; [4]): 0 | Cooling Sensation Score (panelists; [5]): 0 | Cooling Sensation Score (panelists; [6]): 0 | Cooling Sensation Score (panelists; 1000 ppm coolant in paste, rinse Ca+2 723 ppm, 0 min.): 23.5 | Cooling Sensation Score (panelists; 1000 ppm coolant in paste, rinse Ca+2 723 ppm, 5 min.): 12.4 | Cooling Sensation Score (panelists; 1000 ppm coolant in paste, rinse Ca+2 723 ppm, 15 min.): 2.2 | Cooling Sensation Score (panelists; 1000 ppm coolant in paste, rinse Ca+2 723 ppm, 30 min.): 0 | Cooling Sensation Score (panelists; 1000 ppm coolant in paste, rinse Ca+2 723 ppm, 45 min.): 0 | Cooling Sensation Score (panelists; 1000 ppm coolant in paste, rinse Ca+2 723 ppm, 60 min.): 0

O=P(O)(O)OP(=O)(O)OP(=O)(O)O [Sodium tripolyphosphate]
% Change from G-180 value (human TRPM8): 5.69% | Average Fluorescence (n = 3) (human TRPM8; [25]): 18508.43

CC(C)[C@@H]1CC[C@@H](C)CC12OCC(CO)O2 (some centres unmarked) [MGA, menthone glycerol acetal]
Cooling Sensation Score (panelists; [7]): 16.5 | Cooling Sensation Score (panelists; [8]): 13.6 | Cooling Sensation Score (panelists; [9]): 4.4 | Cooling Sensation Score (panelists; [10]): 0 | Cooling Sensation Score (panelists; [11]): 0 | Cooling Sensation Score (panelists; [12]): 0 | Cooling Sensation Score (panelists; 1500 ppm coolant in paste, rinse Ca+2 723 ppm, 0 min.): 20.7 | Cooling Sensation Score (panelists; 1500 ppm coolant in paste, rinse Ca+2 723 ppm, 5 min.): 18.3 | Cooling Sensation Score (panelists; 1500 ppm coolant in paste, rinse Ca+2 723 ppm, 15 min.): 7.0 | Cooling Sensation Score (panelists; 1500 ppm coolant in paste, rinse Ca+2 723 ppm, 30 min.): 1.4 | Cooling Sensation Score (panelists; 1500 ppm coolant in paste, rinse Ca+2 723 ppm, 45 min.): 0 | Cooling Sensation Score (panelists; 1500 ppm coolant in paste, rinse Ca+2 723 ppm, 60 min.): 0 | Calcium enhancing effect on cooling (panelists; 1500 ppm level of coolant in dentifrice): calcium enhancing effect was also observed | Potentiating effect of calcium ions on cooling intensity and duration (panelists; at the levels of coolant and calcium used): particularly evident

CNC(=O)C(C)(C(C)C)C(C)C [WS-23, N,2,3-trimethyl-2-isopropylbutanamide]
Cooling Sensation Score (panelists; [13]): 15.4 | Cooling Sensation Score (panelists; [14]): 7.4 | Cooling Sensation Score (panelists; [15]): 3.0 | Cooling Sensation Score (panelists; [16]): 0 | Cooling Sensation Score (panelists; [17]): 0 | Cooling Sensation Score (panelists; [18]): 0 | Cooling Sensation Score (panelists; [19]): 18.8 | Cooling Sensation Score (panelists; [20]): 4.9 | Cooling Sensation Score (panelists; [21]): 1.0 | Cooling Sensation Score (panelists; [22]): 0 | Cooling Sensation Score (panelists; [23]): 0 | Cooling Sensation Score (panelists; [24]): 0

CCCCCCCCCCCCOP(=O)([O-])[O-].[Na+].[Na+] [Sodium lauryl phosphate]
% Change from G-180 value (human TRPM8): 5.10% | Average Fluorescence (n = 3) (human TRPM8; [25]): 18404.83

O=P(O)(O)O[C@H]1[C@H](OP(=O)(O)O)[C@@H](OP(=O)(O)O)[C@H](OP(=O)(O)O)[C@@H](OP(=O)(O)O)[C@H]1OP(=O)(O)O [Phytic acid, myo-inositol 1,2,3,4,5,6-hexakis (dihydrogen phosphate)]
Average Fluorescence (n = 3) (human TRPM8; 100 uM test compound alone (direct effect on TRPM8)): 129.38 | % Change from G-180 value (human TRPM8): 23.36% | % Change from G-180 value (human TRPM8; listed as Phytic Acid): 21.20% | % Change from G-180 value (human TRPM8; listed as phytic acid): 23.36% | Average Fluorescence (n = 3) (human TRPM8; [25]): 18382.62 | Average Fluorescence (n = 3) (human TRPM8; pre-treatment with 100 uM test compound for 30 minutes, then 6.25 uM G-180, listed as Phytic Acid): 21178.86 | Modulation of the G-180 activity at TRPM8 (human TRPM8; separate experiments using the same protocol, 100 uM + 6.25 uM G-180): positive modulation was confirmed

O=P([O-])([O-])OP(=O)([O-])OP(=O)([O-])[O-].[Na+].[Na+].[Na+].[Na+].[Na+] [Penta sodium triphosphate]
% Change from G-180 value (human TRPM8): 0.66% | Average Fluorescence (n = 3) (human TRPM8; [25]): 17628.02
